# According to patent US20230364079A1, “COMPOUND AS BRAIN-PERMEABLE BTK OR HER2 INHIBITOR, PREPARATION METHOD THEREFOR, AND USE THEREOF” (CHENGDU HYPERWAY PHARMACEUTICALS CO., LTD., priority 2020, published 2023):
# Like-named read-outs stand apart in the source and are kept apart here.
# Assays:
# [1] = molecular target: BTK wild-type kinase (Homo sapiens (Human), UniProt Q06187); test: BTK kinase activity inhibition test in vitro (Caliper EZ Reader); format: biochemical
# Outline: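 Compound (10 mM DMSO stock) preincubated with kinase 10 min at room temperature, then ATP plus kinase substrate 2 added, 10 min reaction at room temperature before stop. Substrate conversion read by Caliper mobility shift; inhibition normalised to no-enzyme and no-compound controls, IC50 by variable-slope log(inhibitor) fit.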
# [2] = molecular target: BTK mutation-type C481S kinase (Homo sapiens (Human), UniProt Q06187, C481S); test: BTK-C481S kinase activity inhibition test in vitro (Caliper EZ Reader); format: biochemical
# BTK mutation-type C481S kinase, sequence (Q06187 whole entry C481S): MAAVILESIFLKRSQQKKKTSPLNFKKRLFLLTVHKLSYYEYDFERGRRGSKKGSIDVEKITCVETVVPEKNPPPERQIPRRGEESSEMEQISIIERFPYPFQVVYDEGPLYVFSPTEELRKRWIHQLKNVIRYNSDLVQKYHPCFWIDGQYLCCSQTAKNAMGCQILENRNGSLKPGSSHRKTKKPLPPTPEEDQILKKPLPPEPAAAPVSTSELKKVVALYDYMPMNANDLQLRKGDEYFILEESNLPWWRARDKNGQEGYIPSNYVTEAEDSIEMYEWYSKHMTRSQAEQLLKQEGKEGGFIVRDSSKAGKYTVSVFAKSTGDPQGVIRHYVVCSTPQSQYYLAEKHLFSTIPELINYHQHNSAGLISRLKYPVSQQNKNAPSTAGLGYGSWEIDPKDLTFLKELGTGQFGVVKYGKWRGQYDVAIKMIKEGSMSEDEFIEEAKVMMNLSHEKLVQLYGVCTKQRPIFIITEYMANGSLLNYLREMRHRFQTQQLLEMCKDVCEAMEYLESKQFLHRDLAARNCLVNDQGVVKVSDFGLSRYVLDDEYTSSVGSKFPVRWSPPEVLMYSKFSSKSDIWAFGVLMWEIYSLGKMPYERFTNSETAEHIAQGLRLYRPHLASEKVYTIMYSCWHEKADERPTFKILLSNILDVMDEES
# Protocol: In the tests on the activity of inhibiting BTK and HER2 kinase in vitro in the examples of the present disclosure, powder of the compound was dissolved in 100% DMSO to prepare a 10 mM stock solution and stored at-20° C. in the dark. […] In addition, the compounds were subjected to experiments such as liver microsome metabolic stability, rat PK, rat brain penetration rate, and drug efficacy model in the examples of the present disclosure.
# Compound powders were dissolved in 100% DMSO to make 10 mM stock solutions, which were stored at -20° C. in the dark.
# 2: Kinase Reaction Process
# (1) Preparation of 1 × Kinase buffer.
# (5) After centrifugation at 1000 rpm for 30 seconds, the reaction plate was shaken to mix well and incubated at room temperature for 10 min.
# (6) A 5/3-fold final concentration of a mixed solution of ATP and Kinase substrate 2 was prepared with 1 × Kinase buffer.
# (7) 15 µL of the mixed solution of ATP and substrate with 5/3-fold final concentration was added to start the reaction.
# (8) The 384-well plate was centrifuged at 1000 rpm for 30 seconds, shaken to mix well, and incubated at room temperature for 10 min.
# (9) 30 µL of a stop solution was added to stop the kinase reaction, and after centrifugation at 1000 rpm for 30 seconds, the plate was shaken to mix well;
# (10) The conversion rate was read with Caliper EZ Reader.
# where Conversion%_sample indicates the conversion rate reading of the sample; Conversion%_min is the average reading of the negative control wells, representing the conversion rate reading of the wells without enzyme activity; Conversion%_max is the average reading of the ratio of the positive control wells, representing the conversion rate reading of the wells without compound inhibition.
# Dose-Response Curve Fitting
# With the log value of the concentration as the X-axis, and the percentage inhibition rate as the Y-axis, the dose-effect curve was fitted using the log(inhibitor) vs. response-Variable slope of the analysis software GraphPad Prism 5, so as to determine the IC50 value of each compound on the enzyme activity.
# The calculation formula was: […]
# [3] = Liver microsome metabolic stability test, human; format: in vitro ADME; conditions: for half-life: liver microsomes, read-out: T½
# Protocol: (§1) 1: To the sample wells of T0, T5, T10, T20, T30, T60 and NCF60, 10 µL of the test or reference working solution and 80 µL of microsome working solution (hepatic microsome with a protein concentration of 0.5 mg/mL) were added, and to Blank60 well, only the microsome working solution was added. Then samples of the Blank60, T5, T10, T20, T30 and T60 other than T0 and NCF60 were placed in a 37° C. water bath and pre-incubated for about 10 min.
# (§2) 2: To the T0 sample well, 300 µL of stop solution (containing 200 ng/mL tolbutamide and 200 ng/mL labetalol in acetonitrile solution) was added first, followed by 10 µL of NADPH regeneration system working solution.
# (§3) 3: After the pre-incubation of Blank60, T5, T10, T20, T30 and T60 incubation plates, 10 µL of NADPH regeneration system working solution was added to each sample well to start the reaction, and 10 µL of 100 mM potassium phosphate buffer was added to the NCF60 sample well.
# (§4) 4: After incubation for an appropriate time (such as 5, 10, 20, 30 and 60 min), to each test sample well and control well of the Blank60, T5, T10, T20, T30, T60 and NCF60 plates, 300 µL of stop solution was added to terminate the reaction.
# (§5) 5: All sample plates were shaken to mix well and centrifuged at 4000 rpm for 20 min, and 100 µL of the supernatant of the test sample or control sample was taken and diluted with 300 µL of pure water for LC-MS/MS analysis.
# (§6) 6: Data analysis: T½ and CLint(mic) (µL/min/mg) values were calculated according to the first-order elimination kinetics. The first-order elimination kinetics equation was: […]
# [4] = Liver microsome metabolic stability test, rat; format: in vitro ADME; conditions: for half-life: liver microsomes, read-out: T½
# Protocol: as §1, §2, §3, §4, §5, §6
# [5] = Pharmacokinetic test, oral, SD rats; format: in vivo; conditions: oral 10 mg/kg, plasma; for half-life: read-out: T½ (converted)
# Outline: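 Male/female status unstated; SD rats (3 per group) dosed orally at 10 mg/kg after overnight fast, refed 4 h post-dose. Plasma from serial blood draws stored at -20° C, protein-precipitated with internal standard solution and quantified by LC-MS/MS.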
# [6] = system: TMD8 cell proliferation; test: In vitro cell proliferation inhibitory activity test (CTG), TMD8; format: cell-based, human; conditions: TMD8 cells, 72 h
# Protocol: Test Example 4: In Vitro Cell Proliferation Inhibitory Activity Test
# Cells were cultured in 1640 medium, added with 10% inactivated FBS and 1% double antibiotics, and cultured at 37° C. and 5% CO2.
# (1) Cells were routinely cultured until the cell density was 80%-90%, and the cells were harvested when their number reached the requirement.
# (2) Cells were resuspended with corresponding culture medium, counted, and prepared into cell suspension at appropriate density.
# (3) The cell suspension was added to a 96-well plate, 100 µL per well.
# (4) Cells were cultured overnight in a 37° C., 5% CO2 incubator.
# (1) The compounds to be tested were diluted with DMSO to make a stock solution with a final concentration of 20 mM for later use.
# (2) The stock solution was diluted 10 times from 20 mM to 2 mM with DMSO, and then diluted 3 times from 2 mM to 9 concentrations.
# (3) The blank control wells were cells plus 0.5% DMSO, as high-reading control wells.
# (4) Wells with no cells and only medium were used as low-reading control wells.
# 4: Cell Treatment With Compound
# (1) 24 h after the cells were plated, the compounds acted alone, and 99 µL of growth medium was added to each well, followed by 1 µL of the compound prepared in step 3. The plate was shaken gently to mix uniformly, and then placed in a 37° C., 5% CO2 incubator.
# (2) The cell plate was placed in an incubator for 72 h.
# 5: Detection by CTG Method
# (1) The cell plate to be tested was placed at room temperature for 30 min, and 100 µL of medium was discarded from each well.
# (2) 100 µL of CTG reagent (CelltiterGlo kit) was added to each well, placed on a fast shaker for 2 min, and stood at room temperature in the dark for 30 min.
# (3) The chemiluminescent signal value was read with the Envision instrument.
# IC50 was calculated by using GraphPad Prism 8 software. The IC50 (half inhibitory concentration) of the compound was derived using the following nonlinear fitting formula, and the results are shown in the following table: […]
# [7] = system: TMD8 mouse subcutaneous xenograft tumor; test: TMD8 pharmacodynamic model test (mouse subcutaneous xenograft tumor); format: in vivo; conditions: for inhibitory effect against the tumor compared with Tirabrutinib: same dose of 20 mg/kg, FIG. 2
# Protocol: Test Example 7: TMD8 Pharmacodynamic Model Test
# Human diffuse large B-cell lymphoma TMD8 cells were monolayer-cultured in vitro in RPMI1640 medium with 10% fetal bovine serum, 100 U/mL penicillin and 100 µg/mL streptomycin, in a 37° C., 5% CO2 incubator. Routine digestion with trypsin-EDTA was performed twice a week for passaging. When the cell density was 80%-90% and the number reached the requirement, cells were harvested, counted and inoculated. 0.2 ml (1×10^7 cells) of TMD8 cells (added with matrigel at a volume ratio of 1:1) were subcutaneously inoculated on the right back of each mouse. The mice were administered in groups when the average tumor volume reached about 137 mm^3. Tumor diameters were measured twice a week with vernier calipers. The tumor volume was calculated by the formula V = 0.5 a × b^2, where a and b represent the long and short diameters of the tumor, respectively.
# [8] = system: DOHH-2-luc tumor cells in the mouse brain; test: DOHH-2-Luc intracerebral tumor drug efficacy model test; format: in vivo; conditions: for inhibitory effect against the tumor compared with Tirabrutinib: DOHH2 tumor model in the mouse brain, same dose of 30 mg/kg (BID), FIG. 3; for tumor size in the brain by fluorescence image: DOHH-2-Luc intracerebral model, same dose, FIG. 4; for side effects: mouse, 30 mg/kg (BID), after 21 days of administration
# Protocol: Test Example 8: DOHH-2-Luc Intracerebral Tumor Drug Efficacy Model Test
# DOHH-2-luc tumor cells were cultured in vitro with RPMI 1640 medium containing 10% fetal bovine serum and 500 ng/mL puromycin in a 37° C., 5% CO2 incubator. […] Tumor cells in logarithmic growth phase were used for inoculation of tumors in vivo.
# 2. Inoculation of Tumor Cell and Grouping
# After the animal was anesthetized by intramuscular injection of Zoletil, it was fixed on the operating table in a prone position. The skin on the top of the head was disinfected with iodine and 75% alcohol respectively, and the skin was cut about 0.5 cm along the midline of the head to expose the coronal and sagittal lines. Being located about 0.5-1.0 mm above the coronal line and about 2 mm to the right of the sagittal line by using a brain locator, a hole was drilled with a 1 mL syringe needle. The micro-injector was inserted vertically to a depth of 3 mm at the location, slowly (about 1 min) injected with 3 × 10^5 DOHH-2-luc tumor cells /2 µL suspension and kept for 1 min. After pulling out the needle, the needle hole was quickly sealed with bone wax, and the wound was sutured with a stapler. About the 7th day after tumor inoculation, the animals were randomly divided into 5 groups according to the body weight of the animals and the optical signal intensity of the tumor site, with 5 animals in each group.
# The mice were imaged 1-2 times a week according to their state using the small animal in vivo imaging system IVIS Lumina III (Perkin Elmer). The bioluminescence imaging (BLI, unit: photons/s) signal intensity at the tumor cell inoculation site of mouse was monitored as the main indicator for evaluating tumor growth and drug efficacy. The specific operation is as follows:
# The mice were intraperitoneally injected with D-luciferin (15 mg/mL, 5 µL/g according to the body weight of the experimental animal), and then inhaled anesthetized with 1%-2% isoflurane. 10 min after the injection of D-luciferin, the animals were imaged with IVIS Lumina III. The data were analyzed and processed using Living Image software (Perkin Elmer), and the optical signal intensity in ROI (regions of interest) of each animal was calculated.
# [9] = dog PK experiments; cited from earlier work
# [10] = mice; cited from earlier work
# BTK wild-type kinase, sequence (Q06187 whole entry): as the sequence (Q06187 whole entry C481S) above, with S481C counted along it
Structure (SMILES),IC50 [1] [nM],IC50 [2] [nM],%Remaining (60 min) [3] [%],%Remaining (60 min) [4] [%],Cl [5] [L/h/kg],IC50 [6] [nM],inhibitory effect against the tumor compared with Tirabrutinib [7],inhibitory effect against the tumor compared with Tirabrutinib [8],tumor size in the brain by fluorescence image [8],side effects [8],half-life ([3]; 0.5 mg/mL protein) [h],half-life ([4]; 0.5 mg/mL protein) [h],AUC(0-inf) ([5]; rat) [µg·h/mL],"Cmax ([5]; rat, read-out: Cmax) [µg/mL]",half-life ([5]; rat) [h],also measured
"Nc1nccn2c([C@@H]3CC[C@H](CO)OC3)nc(-c3ccc(C(=O)Nc4ccccn4)cc3)c12 (single isomer, unassigned) [Compound 2-A-P1]",< 5,< 5,122.5,95.5,0.131,61.9,,,,,,,,,,CLint [3]: <9.6 µL/min/mg; T½ ([3]; 0.5 mg/mL protein): >2.42 h; CLint [4]: <9.6 µL/min/mg; T½ ([4]; 0.5 mg/mL protein): >2.42 h; AUC(0-∞) [5]: 77.004 µg·h/mL; Cmax [5]: 25.188 µg/mL; T½ [5]: 2.21 h
"Nc1nccn2c(C3CCC(CO)OC3)nc(-c3ccc(C(F)(F)c4ccccc4)cc3)c12 (single isomer, unassigned) [Compound 111-P1]",< 5,< 5,,,,71.9,significantly better inhibitory effect against the tumor,significantly better inhibitory effect against the tumor,very good inhibitory effect against the tumor,no side effects,,,,,,TGI (tumor inhibition rate) ([7]; 20 mg/kg): 93%; TGI relative to that of Tirabrutinib ([7]; 20 mg/kg): ~2 times
"O=C(c1ccc(Oc2ccccc2)cc1Cl)c1c[nH]c2ncnc(N[C@@H]3CC[C@@H](CO)OC3)c12 [ARQ-531, reference compound]",,,94.2,81.1,0.619,,,,,,> 2.42,> 2.42,16.2,2.41,3.98,bioavailability [9]: 38%
Nc1nccn2c(C34CCC(CO)(CC3)OC4)nc(-c3ccc(C(=O)Nc4cc(C(F)(F)F)ccn4)cc3)c12 [Compound 118],< 5,< 5,77.4,64.1,0.048,,,,,,> 2.42,1.69,211,25.7,3.35,"inhibitory effect against the tumor compared with ARQ-531 and ibrutinib ([7]; same dose of 10 mg/kg, FIG. 1): significantly better inhibitory effect against the tumor"
Nc1nccn2c(C34CCC(CO)(CC3)OC4)nc(-c3ccc(C(F)(F)c4ccccc4)cc3)c12 [Compound 125],5 to 20,< 5,61.2,49,1.045,,significantly better inhibitory effect against the tumor,significantly better inhibitory effect against the tumor,very good inhibitory effect against the tumor,no side effects,1.58,1.06,8.87,1.18,4.19,
"Cc1cc(Nc2ncnc3ccc(NC4=NC(C)(C)CO4)cc23)ccc1Oc1ccn2ncnc2c1 [Tucatinib, reference compound]",,,28.8,38.2,9.678,,,,,,0.53,0.663,2.27,0.445,1.72,brain permeability rate [10]: less than 5%
